Assay results from PubChem BioAssay AID248 (DTP/NCI, 2004).
Several values for one entry are separate records, joined by “and”; a condition that tells them apart may be missing. Equal values may be shown once. Inconclusive results and toxic doses are left out.

Tested on: L1210 leukemia ip in BDF1 mice, survival T/C
Assay: NCI In Vivo Anticancer Drug Screen. Data for tumor model L1210 Leukemia (intraperitoneal) in B6D2F1 (BDF1) mice
Details: endpoint: mean survival time, higher = longer survival
Method in brief: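 Ratio derived from survival: compound-dosed mice over vehicle-dosed mice, all bearing a transplantable tumor.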

[1] = dose: 100.0 mg/kg/injection, schedule: Q01DX001 (ip), vehicle: saline with Tween-80
[2] = dose: 200.0 mg/kg/injection, schedule: Q01DX001 (ip), vehicle: saline with Tween-80
[3] = dose: 400.0 mg/kg/injection, schedule: Q01DX001 (ip), vehicle: saline with Tween-80
[4] = dose: 100.0 mg/kg/injection, schedule: Q01DX001 (ip), vehicle: carboxymethylcellulose (CMC)
[5] = dose: 200.0 mg/kg/injection, schedule: Q01DX001 (ip), vehicle: carboxymethylcellulose (CMC)
[6] = dose: 400.0 mg/kg/injection, schedule: Q01DX001 (ip), vehicle: carboxymethylcellulose (CMC)
[7] = dose: 100.0 mg/kg/injection, schedule: Q01DX001 (ip), vehicle: saline
[8] = dose: 100.0 mg/kg/injection, schedule: Q04DX003 (ip), vehicle: saline
[9] = dose: 200.0 mg/kg/injection, schedule: Q01DX001 (ip), vehicle: saline
[10] = dose: 200.0 mg/kg/injection, schedule: Q04DX003 (ip), vehicle: saline
[11] = dose: 400.0 mg/kg/injection, schedule: Q04DX003 (ip), vehicle: saline
[12] = dose: 100.0 mg/kg/injection, schedule: Q01DX009 (ip), vehicle: Klucel (hydroxypropylcellulose) (HPC)
[13] = dose: 200.0 mg/kg/injection, schedule: Q01DX009 (ip), vehicle: Klucel (hydroxypropylcellulose) (HPC)
[14] = dose: 400.0 mg/kg/injection, schedule: Q01DX009 (ip), vehicle: Klucel (hydroxypropylcellulose) (HPC)
[15] = dose: 100.0 mg/kg/injection, schedule: Q01DX009 (ip), vehicle: saline
[16] = dose: 200.0 mg/kg/injection, schedule: Q01DX009 (ip), vehicle: saline
[17] = dose: 400.0 mg/kg/injection, schedule: Q01DX009 (ip), vehicle: saline
[18] = dose: 100.0 mg/kg/injection, schedule: Q04DX003 (ip), vehicle: Klucel (hydroxypropylcellulose) (HPC)
[19] = dose: 200.0 mg/kg/injection, schedule: Q04DX003 (ip), vehicle: Klucel (hydroxypropylcellulose) (HPC)
[20] = dose: 400.0 mg/kg/injection, schedule: Q04DX003 (ip), vehicle: Klucel (hydroxypropylcellulose) (HPC)
[21] = dose: 100.0 mg/kg/injection, schedule: Q04DX003 (ip), vehicle: saline with Tween-80
[22] = dose: 200.0 mg/kg/injection, schedule: Q04DX003 (ip), vehicle: saline with Tween-80
[23] = dose: 400.0 mg/kg/injection, schedule: Q04DX003 (ip), vehicle: saline with Tween-80
[24] = dose: 100.0 mg/kg/injection, schedule: Q04DX002 (ip), vehicle: Klucel (hydroxypropylcellulose) (HPC)
[25] = dose: 200.0 mg/kg/injection, schedule: Q04DX002 (ip), vehicle: Klucel (hydroxypropylcellulose) (HPC)

SMILES: COc1ccc(-c2c(C(=O)O)cccc2[N+](=O)[O-])c(OC)c1
- T/C (dose: 100.0 mg/kg/injection, schedule: Q01DX003 (ip), vehicle: Klucel (hydroxypropylcellulose) (HPC)): 98 % of control
- T/C (dose: 200.0 mg/kg/injection, schedule: Q01DX003 (ip), vehicle: Klucel (hydroxypropylcellulose) (HPC)): 91 % of control
- T/C (dose: 400.0 mg/kg/injection, schedule: Q01DX003 (ip), vehicle: Klucel (hydroxypropylcellulose) (HPC)): 86 % of control

SMILES: O=C(O)CC1CCCCC1NC(=O)c1ccccc1 (stereo unspecified)
- T/C [1]: 100 % of control
- T/C [2]: 94 % of control
- T/C [3]: 95 % of control

SMILES: CCN(CC)CCCC(Nc1c2ccc(Cl)cc2nc2ccc(OC)cc12)c1ccc(F)cc1 (stereo unspecified)
- T/C (dose: 9.0 mg/kg/injection, schedule: Q01DX Z (ip), vehicle: methylcellulose (MC)): 86 % of control
- T/C (dose: 15.0 mg/kg/injection, schedule: Q01DX Z (ip), vehicle: methylcellulose (MC)): 95 % of control
- T/C (dose: 20.0 mg/kg/injection, schedule: Q01DX Z (ip), vehicle: methylcellulose (MC)): 86 % of control
- T/C (dose: 30.0 mg/kg/injection, schedule: Q01DX Z (ip), vehicle: methylcellulose (MC)): 89 % of control

SMILES: CC1([N+](=O)[O-])COP(=O)(NC2CC2)OC1 (stereo unspecified)
- T/C (dose: 50.0 mg/kg/injection, schedule: Q01DX001 (ip), vehicle: carboxymethylcellulose (CMC)): 97 % of control
- T/C [4]: 97 % of control
- T/C [5]: 103 % of control
- T/C [6]: 97 % of control

SMILES: CCOC(=O)C/C(=C/c1ccco1)C(=O)OCC
- T/C [7]: 86 % of control
- T/C [8]: 89 % of control
- T/C [9]: 92 % of control
- T/C [10]: 96 % of control
- T/C (dose: 400.0 mg/kg/injection, schedule: Q01DX001 (ip), vehicle: saline): 89 % of control
- T/C [11]: 89 % of control

SMILES: C[N+](C)(CCCCOCCCC[N+](C)(C)Cc1ccc([N+](=O)[O-])cc1)Cc1ccc([N+](=O)[O-])cc1
- T/C (dose: 1.5 mg/kg/injection, schedule: Q04DX003 (ip), vehicle: saline with Tween-80): 98 % of control
- T/C (dose: 3.0 mg/kg/injection, schedule: Q04DX003 (ip), vehicle: saline with Tween-80): 104 % of control

SMILES: Cc1cccc(C(C#N)c2ccc(N)cc2)c1 (stereo unspecified)
- T/C (dose: 50.0 mg/kg/injection, schedule: Q01DX001 (ip), vehicle: saline): 101 % of control
- T/C [7]: 101 % of control
- T/C [9]: 101 % of control

SMILES: Cc1cc(NC(=O)C(=O)Nc2cc(C)on2)no1
- T/C [12]: 93 % of control
- T/C [13]: 100 % of control
- T/C [14]: 93 % of control

SMILES: O=[N+]([O-])c1cccc2c(Br)cccc12
- T/C [15]: 106 % of control
- T/C [8]: 103 % of control
- T/C [16]: 95 % of control
- T/C [10]: 100 % of control
- T/C [17]: 95 % of control
- T/C [11]: 106 % of control

SMILES: CC(NCCN1CC1)C1CC1 (stereo unspecified)
- T/C (dose: 20.0 mg/kg/injection, schedule: Q01DX009 (ip), vehicle: saline): 120 % of control

SMILES: CC(=O)OC1CCC2(C)C(=CC(=O)C3=C2CCC2(C)C3CCC2C(C)/C=C/C(C)C(C)C)C1 (stereo unspecified)
- T/C [15]: 92 % of control
- T/C [8]: 88 % of control
- T/C [16]: 95 % of control
- T/C [10]: 97 % of control
- T/C [17]: 92 % of control
- T/C [11]: 91 % of control

SMILES: Fc1ccccc1NC1=NCCO1
- T/C [18]: 101 % of control
- T/C [19]: 95 % of control
- T/C [20]: 92 % of control

SMILES: O=c1[nH]cnc2c1cnn2-c1ccccc1
- T/C [12]: 104 % of control
- T/C [13]: 104 % of control
- T/C [14]: 112 % of control

SMILES: COc1cc2cc3c4cc(OC)c(OC)cc4cc[n+]3c(/C=C/c3cc(OC)c(OC)c(OC)c3)c2cc1OC
- T/C (dose: 100.0 mg/kg/injection, schedule: Q04DX002 (ip), vehicle: saline with Tween-80): 96 % of control and 106 % of control
- T/C [21]: 94 % of control
- T/C (dose: 200.0 mg/kg/injection, schedule: Q04DX002 (ip), vehicle: saline with Tween-80): 97 % of control and 104 % of control
- T/C [22]: 96 % of control
- T/C (dose: 400.0 mg/kg/injection, schedule: Q04DX002 (ip), vehicle: saline with Tween-80): 104 % of control and 92 % of control
- T/C [23]: 91 % of control

SMILES: CN(C)C(=O)c1cc[n+](Cc2ccc(Cl)cc2)cc1
- T/C [8]: 98 % of control

SMILES: CN(C(=O)C1C(C(=O)O)C2(Cl)C(Cl)=C(Cl)C1(Cl)C2(Cl)Cl)C1CCCCC1 (stereo unspecified)
- T/C [24]: 110 % of control
- T/C [25]: 98 % of control

SMILES: O=C1c2cccc([N+](=O)[O-])c2C(=O)C1c1ccccn1 (stereo unspecified)
- T/C [21]: 101 % of control
- T/C [22]: 90 % of control
- T/C [23]: 101 % of control

SMILES: CCOC(=O)c1c(C)c2c(n1C)CCCC2O (stereo unspecified)
- T/C (dose: 100.0 mg/kg/injection, schedule: Q04DX003 (ip), vehicle: carboxymethylcellulose (CMC)): 101 % of control
- T/C (dose: 200.0 mg/kg/injection, schedule: Q04DX003 (ip), vehicle: carboxymethylcellulose (CMC)): 98 % of control
- T/C (dose: 400.0 mg/kg/injection, schedule: Q04DX003 (ip), vehicle: carboxymethylcellulose (CMC)): 95 % of control

SMILES: O=[N+]([O-])c1cccc(N(c2ccccc2)c2ccccc2)c1
- T/C [4]: 108 % of control
- T/C [5]: 108 % of control
- T/C [6]: 100 % of control

SMILES: CC(=O)OC1CSC1OC(C)=O (stereo unspecified)
- T/C [1]: 95 % of control
- T/C [2]: 93 % of control
- T/C [3]: 98 % of control

SMILES: O=C(O)c1ccc(Nc2c3ccccc3nc3ccccc23)cc1
- T/C (dose: 50.0 mg/kg/injection, schedule: Q01DX009 (ip), vehicle: Klucel (hydroxypropylcellulose) (HPC)): 177 % of control
- T/C [12]: 243 % of control

SMILES: CN(C)c1ccccc1CN1CCCN(Cc2ccccc2N(C)C)C1c1ccncc1
- T/C (dose: 6.0 mg/kg/injection, schedule: Q12HX018 (ip), vehicle: other): 96 % of control
- T/C (dose: 12.0 mg/kg/injection, schedule: Q12HX018 (ip), vehicle: other): 103 % of control
- T/C (dose: 24.0 mg/kg/injection, schedule: Q12HX018 (ip), vehicle: other): 101 % of control

SMILES: CC1(c2ccc3ccccc3c2)OCC2(CCCC2)CO1
- T/C (dose: 100.0 mg/kg/injection, schedule: Q04DX002 (ip), vehicle: gum acacia): 117 % of control
- T/C (dose: 200.0 mg/kg/injection, schedule: Q04DX002 (ip), vehicle: gum acacia): 110 % of control
- T/C (dose: 400.0 mg/kg/injection, schedule: Q04DX002 (ip), vehicle: gum acacia): 103 % of control

SMILES: CC(=O)Oc1c(Cl)c(Cl)c(Cl)c(Cl)c1Cl
- T/C (dose: 100.0 mg/kg/injection, schedule: Q01DX009 (ip), vehicle: saline sonified): 101 % of control
- T/C [18]: 100 % of control
- T/C (dose: 200.0 mg/kg/injection, schedule: Q01DX009 (ip), vehicle: saline sonified): 107 % of control
- T/C [19]: 100 % of control
- T/C (dose: 400.0 mg/kg/injection, schedule: Q01DX009 (ip), vehicle: saline sonified): 106 % of control
- T/C [20]: 93 % of control

SMILES: COC1OC2COC(c3ccccc3)OC2C(NC(C)=O)C1O (stereo unspecified)
- T/C [24]: 101 % of control
- T/C [25]: 111 % of control
- T/C (dose: 400.0 mg/kg/injection, schedule: Q04DX002 (ip), vehicle: Klucel (hydroxypropylcellulose) (HPC)): 105 % of control

SMILES: C=CC1(O)CCCC1
- T/C (dose: 50.0 mg/kg/injection, schedule: Q01DX009 (ip), vehicle: saline with Tween-80): 100 % of control
- T/C (dose: 100.0 mg/kg/injection, schedule: Q01DX009 (ip), vehicle: saline with Tween-80): 107 % of control
- T/C (dose: 200.0 mg/kg/injection, schedule: Q01DX009 (ip), vehicle: saline with Tween-80): 96 % of control

SMILES: COCC(=O)C(C(C)=O)C(c1ccc(N(C)C)cc1)C(C(C)=O)C(=O)COC (stereo unspecified)
- T/C [21]: 98 % of control
- T/C [22]: 89 % of control
- T/C [23]: 91 % of control
